Data reported in patent publication US11096985B2, “Antimicrobial peptides, their variants and uses” (priority 2015, dated 2021).
Where a SMILES comes first, the peptide text is derived from it. [ ]: non-standard residue; d: D form.

Columns and labels:
[1] = test system: clinical strains of C. parapsilosis; assay: MIC, clinical yeast strains, C. parapsilosis; assay type: cell-based, Candida parapsilosis; design: unit: μg/ml
Outline: (§1)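 Broth microdilution in Mueller Hinton broth, inoculum adjusted to 5.0×10^5 cfu/ml, peptide tested at 0.125 to 128 μg/ml and incubated at 37° C. for 20 to 24 hours. MIC was the lowest concentration with no visible growth. Yeasts were tested in potato dextrose broth.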

[2] = test system: clinical strains of Pseudomonas aeruginosa; assay: MIC, clinical strains of P. aeruginosa; assay type: cell-based; design: unit: μg/ml; details: microdilution, Muller Hinton broth-cation adjusted, 0.02% BSA, 0.2% acetic acid
Outline: as §1

[3] = test system: clinical strains of Proteus mirabilis; assay: MIC, clinical strains of Proteus mirabilis; assay type: cell-based; design: unit: µg/mL; details: microdilution, Muller Hinton broth-cation adjusted, 0.02% BSA, 0.2% acetic acid
Outline: as §1

[4] = test system: clinical strains of Staphylococcus aureus; assay: MIC, clinical strains of S. aureus; assay type: cell-based; design: unit: μg/ml; details: microdilution, Muller Hinton broth-cation adjusted, 0.02% BSA, 0.2% acetic acid
Outline: as §1

[5] = test system: clinical strains of Enterobacter cloacae; assay: MIC, clinical strains of Enterobacter cloacae; assay type: cell-based; design: unit: μg/ml; details: microdilution, Muller Hinton broth-cation adjusted, 0.02% BSA, 0.2% acetic acid
Outline: as §1

[6] = test system: clinical strains of C. glabrata; assay: MIC, clinical yeast strains, C. glabrata; assay type: cell-based, Candida glabrata; design: unit: μg/ml
Outline: as §1

[7] = test system: clinical strains of Serratia marcescens; assay: MIC, clinical strains of Serratia marcescens; assay type: cell-based; design: unit: µg/mL; details: microdilution, Muller Hinton broth-cation adjusted, 0.02% BSA, 0.2% acetic acid
Outline: as §1

[8] = test system: clinical strains of Streptococcus pneumoniae; assay: MIC, clinical strains of Streptococcus pneumoniae; assay type: cell-based; design: unit: µg/mL; details: microdilution, Muller Hinton broth-cation adjusted, 0.02% BSA, 0.2% acetic acid
Outline: as §1

[9] = test system: clinical strains of C. quillermondiae; assay: MIC, clinical yeast strains, C. quillermondiae; assay type: cell-based; details: C. quillermondiae clinical yeast strain 1
Outline: as §1

[10] = test system: clinical strains of Escherichia coli; assay: MIC, clinical strains of E. coli; assay type: cell-based; design: unit: μg/ml; details: microdilution, Muller Hinton broth-cation adjusted, 0.02% BSA, 0.2% acetic acid
Outline: as §1

[11] = test system: clinical strains of Candida albicans; assay: MIC, clinical yeast strains, Candida albicans; assay type: cell-based; design: unit: μg/ml
Outline: as §1

[12] = test system: clinical strains of Klebsiella pneumoniae; assay: MIC, clinical strains of K. pneumoniae; assay type: cell-based; design: unit: μg/ml; details: microdilution, Muller Hinton broth-cation adjusted, 0.02% BSA, 0.2% acetic acid
Outline: as §1

[13] = C. parapsilosis clinical yeast strain 1
[14] = C. parapsilosis clinical yeast strain 2
[15] = C. parapsilosis clinical yeast strain 3
[16] = C. parapsilosis clinical yeast strain 4
[17] = Pseudomonas aeruginosa clinical strain 1
[18] = Pseudomonas aeruginosa clinical strain 2
[19] = Pseudomonas aeruginosa clinical strain 3
[20] = Pseudomonas aeruginosa clinical strain 4
[21] = Pseudomonas aeruginosa clinical strain 5
[22] = Proteus mirabilis clinical strain 1
[23] = Proteus mirabilis clinical strain 2
[24] = Proteus mirabilis clinical strain 3
[25] = Proteus mirabilis clinical strain 4
[26] = Proteus mirabilis clinical strain 5
[27] = Staphylococcus aureus clinical strain 1
[28] = Staphylococcus aureus clinical strain 2
[29] = Staphylococcus aureus clinical strain 3
[30] = Staphylococcus aureus clinical strain 4
[31] = Staphylococcus aureus clinical strain 5
[32] = Enterobacter cloacae clinical strain 1
[33] = Enterobacter cloacae clinical strain 2
[34] = Enterobacter cloacae clinical strain 3
[35] = Enterobacter cloacae clinical strain 4
[36] = Enterobacter cloacae clinical strain 5
[37] = C. glabrata clinical yeast strain 1
[38] = C. glabrata clinical yeast strain 2
[39] = C. glabrata clinical yeast strain 3
[40] = C. glabrata clinical yeast strain 4
[41] = Serratia marcescens clinical strain 1
[42] = Serratia marcescens clinical strain 2
[43] = Serratia marcescens clinical strain 3
[44] = Serratia marcescens clinical strain 4
[45] = Serratia marcescens clinical strain 5
[46] = Streptococcus pneumoniae clinical strain 1
[47] = Streptococcus pneumoniae clinical strain 2
[48] = Streptococcus pneumoniae clinical strain 3
[49] = Streptococcus pneumoniae clinical strain 4
[50] = Streptococcus pneumoniae clinical strain 5
[51] = Escherichia coli clinical strain 1
[52] = Escherichia coli clinical strain 2
[53] = Escherichia coli clinical strain 3
[54] = Escherichia coli clinical strain 4
[55] = Escherichia coli clinical strain 5
[56] = Candida albicans clinical yeast strain 1
[57] = Candida albicans clinical yeast strain 2
[58] = Candida albicans clinical yeast strain 3
[59] = Candida albicans clinical yeast strain 4
[60] = Candida albicans clinical yeast strain 5
[61] = Klebsiella pneumoniae clinical strain 1
[62] = Klebsiella pneumoniae clinical strain 2
[63] = Klebsiella pneumoniae clinical strain 3
[64] = Klebsiella pneumoniae clinical strain 4
[65] = Klebsiella pneumoniae clinical strain 5

CC(C)C[C@@H](NC(=O)[C@@H](CCCCN)NC(=O)[C@@H](CCCCN)NC(=O)[C@@H](Cc1ccccc1)NC(=O)[C@@H](CC(C)C)NC(=O)[C@@H](Cc1c[nH]c2ccccc12)NC(=O)[C@@H](CCCNC(=N)N)NC(=O)[C@@H](Cc1c[nH]c2ccccc12)NC(=O)[C@@H](CCCCN)NC(=O)[C@@H](CCCNC(=N)N)NC(=O)[C@H](N)CCCCN)C(=O)O [Chain310D] (H-[dK][dR][dK][dW][dR][dW][dL][dF][dK][dK][dL]-OH)
Minimum inhibitory concentration [1, 13]: 64 | Minimum inhibitory concentration [1, 14]: 64 | Minimum inhibitory concentration [1, 15]: 64 | Minimum inhibitory concentration [1, 16]: 16 | Minimum inhibitory concentration [2, 17]: 8 | Minimum inhibitory concentration [2, 18]: 16 | Minimum inhibitory concentration [2, 19]: 16 | Minimum inhibitory concentration [2, 20]: 8 | Minimum inhibitory concentration [2, 21]: 4 | Minimum inhibitory concentration [3, 22]: >128 | Minimum inhibitory concentration [3, 23]: >128 | Minimum inhibitory concentration [3, 24]: >128 | Minimum inhibitory concentration [3, 25]: >128 | Minimum inhibitory concentration [3, 26]: >128 | Minimum inhibitory concentration [4, 27]: 8 | Minimum inhibitory concentration [4, 28]: 16 | Minimum inhibitory concentration [4, 29]: 8 | Minimum inhibitory concentration [4, 30]: 8 | Minimum inhibitory concentration [4, 31]: 4 | Minimum inhibitory concentration [5, 32]: 128 | Minimum inhibitory concentration [5, 33]: 64 | Minimum inhibitory concentration [5, 34]: 16 | Minimum inhibitory concentration [5, 35]: 8 | Minimum inhibitory concentration [5, 36]: 16 | Minimum inhibitory concentration [6, 37]: 16 | Minimum inhibitory concentration [6, 38]: 16 | Minimum inhibitory concentration [6, 39]: 128 | Minimum inhibitory concentration [6, 40]: 128 | Minimum inhibitory concentration [7, 41]: >128 | Minimum inhibitory concentration [7, 42]: >128 | Minimum inhibitory concentration [7, 43]: >128 | Minimum inhibitory concentration [7, 44]: >128 | Minimum inhibitory concentration [7, 45]: >128 | Minimum inhibitory concentration [8, 46]: 128 | Minimum inhibitory concentration [8, 47]: 128 | Minimum inhibitory concentration [8, 48]: 128 | Minimum inhibitory concentration [8, 49]: 128 | Minimum inhibitory concentration [8, 50]: 64 | Minimum inhibitory concentration [9]: 8 | Minimum inhibitory concentration [10, 51]: 4 | Minimum inhibitory concentration [10, 52]: 32 | Minimum inhibitory concentration [10, 53]: 16 | Minimum inhibitory concentration [10, 54]: 16 | Minimum inhibitory concentration [10, 55]: 16 | Minimum inhibitory concentration [11, 56]: 16 | Minimum inhibitory concentration [11, 57]: 16 | Minimum inhibitory concentration [11, 58]: 16 | Minimum inhibitory concentration [11, 59]: 16 | Minimum inhibitory concentration [11, 60]: 16 | Minimum inhibitory concentration [12, 61]: 64 | Minimum inhibitory concentration [12, 62]: 64 | Minimum inhibitory concentration [12, 63]: 128 | Minimum inhibitory concentration [12, 64]: 64 | Minimum inhibitory concentration [12, 65]: 32

CC(C)C[C@@H](NC(=O)[C@H](N)CCCCN)C(=O)N[C@H](CCCCN)C(=O)N[C@H](Cc1c[nH]c2ccccc12)C(=O)N[C@H](Cc1ccccc1)C(=O)N[C@H](Cc1c[nH]c2ccccc12)C(=O)N[C@H](CC(C)C)C(=O)N[C@H](Cc1ccccc1)C(=O)N[C@H](CCCCN)C(=O)N[C@H](CCCCN)C(=O)N[C@H](CCCNC(=N)N)C(=O)O [Chain311D] (H-[dK][dL][dK][dW][dF][dW][dL][dF][dK][dK][dR]-OH)
Minimum inhibitory concentration [1, 13]: 16 | Minimum inhibitory concentration [1, 14]: 8 | Minimum inhibitory concentration [1, 15]: 8 | Minimum inhibitory concentration [1, 16]: 8 | Minimum inhibitory concentration [2, 17]: 16 | Minimum inhibitory concentration [2, 18]: 8 | Minimum inhibitory concentration [2, 19]: 16 | Minimum inhibitory concentration [2, 20]: 8 | Minimum inhibitory concentration [2, 21]: 4 | Minimum inhibitory concentration [3, 22]: >128 | Minimum inhibitory concentration [3, 23]: 128 | Minimum inhibitory concentration [3, 24]: 128 | Minimum inhibitory concentration [3, 25]: >128 | Minimum inhibitory concentration [3, 26]: >128 | Minimum inhibitory concentration [4, 27]: 1 | Minimum inhibitory concentration [4, 28]: 1 | Minimum inhibitory concentration [4, 29]: 1 | Minimum inhibitory concentration [4, 30]: 1 | Minimum inhibitory concentration [4, 31]: 1 | Minimum inhibitory concentration [5, 32]: 4 | Minimum inhibitory concentration [5, 33]: 4 | Minimum inhibitory concentration [5, 34]: 4 | Minimum inhibitory concentration [5, 35]: 4 | Minimum inhibitory concentration [5, 36]: 2 | Minimum inhibitory concentration [6, 37]: 16 | Minimum inhibitory concentration [6, 38]: 16 | Minimum inhibitory concentration [6, 39]: 8 | Minimum inhibitory concentration [6, 40]: 64 | Minimum inhibitory concentration [7, 41]: >128 | Minimum inhibitory concentration [7, 42]: >128 | Minimum inhibitory concentration [7, 43]: >128 | Minimum inhibitory concentration [7, 44]: >128 | Minimum inhibitory concentration [7, 45]: >128 | Minimum inhibitory concentration [8, 46]: 16 | Minimum inhibitory concentration [8, 47]: 8 | Minimum inhibitory concentration [8, 48]: 16 | Minimum inhibitory concentration [8, 49]: 4 | Minimum inhibitory concentration [8, 50]: 8 | Minimum inhibitory concentration [9]: 4 | Minimum inhibitory concentration [10, 51]: 2 | Minimum inhibitory concentration [10, 52]: 2 | Minimum inhibitory concentration [10, 53]: 1 | Minimum inhibitory concentration [10, 54]: 0.5 | Minimum inhibitory concentration [10, 55]: 1 | Minimum inhibitory concentration [11, 56]: 8 | Minimum inhibitory concentration [11, 57]: 8 | Minimum inhibitory concentration [11, 58]: 8 | Minimum inhibitory concentration [11, 59]: 16 | Minimum inhibitory concentration [11, 60]: 16 | Minimum inhibitory concentration [12, 61]: 8 | Minimum inhibitory concentration [12, 62]: 8 | Minimum inhibitory concentration [12, 63]: 4 | Minimum inhibitory concentration [12, 64]: 8 | Minimum inhibitory concentration [12, 65]: 4
